Reference: paper PMC12363792 (bioRxiv, 2025)

How the values were obtained:
CA1 hippocampal neurons = experiment: 2-photon FRET cAMP imaging in acute brain slices; format: cell-based, mice; settings: bath application 100 nM, CaMKIIα-Cre:CAMPER+/− slices
D2R [1] = biological target: D2R (Homo sapiens, UniProt P14416); format: cell-based; settings: D2R vs D3R
D2R [2] = settings: cited from earlier work

Chain of D2R (Homo sapiens, UniProt P14416) (P14416 whole entry): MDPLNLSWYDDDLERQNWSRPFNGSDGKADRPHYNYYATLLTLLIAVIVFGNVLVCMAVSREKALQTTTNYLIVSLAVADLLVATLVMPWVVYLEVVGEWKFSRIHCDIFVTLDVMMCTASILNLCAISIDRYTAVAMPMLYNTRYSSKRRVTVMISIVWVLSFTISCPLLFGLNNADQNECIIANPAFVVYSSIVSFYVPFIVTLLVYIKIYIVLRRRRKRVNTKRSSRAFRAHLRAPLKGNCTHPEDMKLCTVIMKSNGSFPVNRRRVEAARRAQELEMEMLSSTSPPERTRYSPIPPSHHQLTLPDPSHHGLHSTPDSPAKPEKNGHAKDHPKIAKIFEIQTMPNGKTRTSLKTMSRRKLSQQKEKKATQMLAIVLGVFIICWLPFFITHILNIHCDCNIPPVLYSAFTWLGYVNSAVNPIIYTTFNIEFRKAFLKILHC

SMILES | agonist-induced cAMP response (CA1 hippocampal neurons) | activation of GoA via D2R compared to D3R (D2R [1]) | affinity for D2R over D3R (D2R [2])
COc1ccc(OCCN2CCN(C(=O)c3cc4ccccc4[nH]3)CC2)cc1 [ML417] | increase in cAMP production | – | –
CN[C@@H]1Cc2cccc3[nH]c(=O)n(c23)C1 [sumanirole] | robust inhibition of cAMP | five | 200 fold
